We go through one compound from article PMC6934184, “Selective DNA-PKcs inhibition extends the therapeutic index of localized radiotherapy and chemotherapy” (The Journal of Clinical Investigation, 2019).

This experiment concerns the target T1, AKT3 (PKB gamma) (Homo sapiens, UniProt Q9Y243).
T1 construct: purchased Thermo Fisher Scientific (Life Technologies) SelectScreen
Kind of experiment: SelectScreen Z'LYTE. The format is biochemical. Summed up:
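NU5455 was profiled across the SelectScreen Broad panel of kinase activity and binding assays. Z'LYTE reactions such as CSF1R ran at apparent Km ATP, while the Adapta CAMK1 assay used ATP listed as 10. Values are given as percent.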

T1 sequence (Q9Y243 whole entry): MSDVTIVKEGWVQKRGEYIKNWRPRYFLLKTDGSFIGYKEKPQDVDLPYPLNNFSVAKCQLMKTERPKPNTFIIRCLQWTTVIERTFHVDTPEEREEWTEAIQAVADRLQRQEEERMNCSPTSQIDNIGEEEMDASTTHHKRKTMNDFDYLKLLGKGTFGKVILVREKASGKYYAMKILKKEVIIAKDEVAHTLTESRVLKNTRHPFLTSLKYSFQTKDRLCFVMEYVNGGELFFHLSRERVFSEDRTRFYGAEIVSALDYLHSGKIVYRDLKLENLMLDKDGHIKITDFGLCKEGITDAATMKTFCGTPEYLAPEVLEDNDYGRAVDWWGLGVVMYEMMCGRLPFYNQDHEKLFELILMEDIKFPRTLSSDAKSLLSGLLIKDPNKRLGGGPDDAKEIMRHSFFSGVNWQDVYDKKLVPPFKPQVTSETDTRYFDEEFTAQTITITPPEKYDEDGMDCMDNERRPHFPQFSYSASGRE

Usually inhibition stands for the change of the read-out against control, counted positive when it falls. As for `CN(C(=O)CN1CCOCC1)c1ccc2sc3c(-c4cccc5c(=O)cc(N6CC7CCC(C6)O7)oc45)cccc3c2c1` [NU5455], the inhibition at 1 µM is -0.5%.
